Measured values taken from BindingDB's records for doi:10.1021/np400148e (University of Eastern Piedmont, 2013).

Molecular target: Integrase (Human immunodeficiency virus 1, UniProt Q76353)
Test: Inhibition of HIV-1 integrase

`COc1cc(C=CC(=O)CC(=O)C=Cc2ccc(O)c(OC)c2)ccc1O` was tested. Which IC50 did it give?
The IC50 was 40 µM.
